{"source": "patent US20250049776A1", "about": "“AUTOPHAGY INDUCING COMPOUNDS AND USES THEREOF, IN PARTICULAR FOR A SYSTEMIC TREATMENT OF DISEASES AND CONDITIONS” (Samsara Therapeutics Inc., priority 2021, published 2025)", "system": "Human osteosarcoma U20S cells", "test": "Assay to measure lysosome and autolysosome formation (acidic vesicle formation, LysoView/LysoTracker staining)", "assay_type": "cell-based", "conditions": "U2OS cells, concentration of 0.8 μM; for activation at 0.8 µM: Homo sapiens", "protocol": "Lysosomes play a fundamental role in the autophagic pathway by fusing with autophagosomes and creating ‘autolysosomes’ in order to digest their contents. Stimulation of lysosome and autolysosome formation by a compound is indicative of a stimulation of autophagy. The ability of compounds to stimulate lysosome and autolysosome formation, and thus autophagy, in live cells was assessed via fluorescent microscopy using various fluorescent stains for labelling and tracking acidic organelles (including lysosomes and autolysosomes) such as: LysoView™ 650 (70059 and 70059-T, Biotium), LysoViewTM633 (70058 and 70058-T, Biotium) and LysoTracker™ Deep Red (L12492, ThermoFisher Scientific). The cellular phenotype was quantitatively assessed for the induction of acidic vesicle formation and compared to a non-treated control, thus providing a measure of the ability of the compound under investigation to stimulate autophagy.\nRepresentative procedure using LysoView™633 dye or LysoTracker™ Deep Red dye: Human osteosarcoma U20S cells (40,000 cells/well) were seeded in a 24 well glass bottom plate (Sensoplate, Greiner Bio-One) and were incubated overnight in a humidified atmosphere at 37° C. and 5% CO2. Cells were grown in DMEM (Gibco) supplemented with 10% Fetal Bovine Serum (FBS) and 100 units/ml penicillin and 100 μg/ml streptomycin (Invitrogen). After the attachment period, cells were treated with different compounds of interest (at various concentrations in DMSO) or DMSO (non-treated control) in cell culture medium and were incubated for 24 hours. Compound-containing medium was removed and cells were incubated with pre-warmed cell culture medium containing 1× LysoView™ 633 (70058 and 70058-T, Biotium) or 50 nM LysoTracker™ Deep Red (L12492, ThermoFisher Scientific) for 45 minutes at 37° C. Finally, cell nuclei were stained for 10 minutes using Hoechst 33342 (1 μg/mL) and then the medium was replaced with fresh medium. The 24 well plate was then fitted into a heated stage on the microscope and cells maintained at 37° C. Images were captured using appropriate filter set for Cy5 and DAPI detection with the EVOS M7000 Microscope (ThermoFisher Scientific). The cellular phenotype was visually assessed for the induction of acidic vesicle formation relative to the non-treated control; multiple images were acquired and analyzed using ImageJ or Cell Profiler.", "key": {"[1]": {"conditions": "read-out: Activity (percentage increase in acidic vesicle formation over the DMSO-treated control), Table 2"}, "[2]": {"conditions": "read-out: Activity (percentage increase in acidic vesicle formation), Table 2a Preferred compounds"}}, "note": "Read-outs that look alike come from different tables or passages of the source.", "data": [{"smiles": "CCCN(C(=O)c1cc(-c2cnn(-c3ccccc3)c2)cs1)[C@H]1CCNC1", "note": "[Compound 59, 4-(1-phenyl-1H-pyrazol-4-yl)-N-propyl-N-[(3S)-pyrrolidin-3-yl]thiophene-2-carboxamide]", "values": [{"measurement": "activation at 0.8 µM", "setting": "[1]", "result": "10 to 30", "unit": "%"}]}, {"smiles": "CCCN(C(=O)c1csc(-c2cnn(-c3ccc(C)cc3)c2)n1)[C@@H]1CCNC1", "note": "[Compound 65, 2-[1-(4-methylphenyl)-1H-pyrazol-4-yl]-N-propyl-N-[(3R)-pyrrolidin-3-yl]-1,3-thiazole-4-carboxamide]", "values": [{"measurement": "activation at 0.8 µM", "setting": "[1]", "result": "30 to 50", "unit": "%"}]}, {"smiles": "CC(C)N(C(=O)c1csc(-c2cnn(-c3ccccc3Cl)c2)n1)C1CCNCC1", "note": "[Compound 66, 2-[1-(2-chlorophenyl)-1H-pyrazol-4-yl]-N-(piperidin-4-yl)-N-(propan-2-yl)-1,3-thiazole-4-carboxamide]", "values": [{"measurement": "activation at 0.8 µM", "setting": "[1]", "result": "10 to 30", "unit": "%"}]}, {"smiles": "CCCN(C(=O)c1csc(-c2ccc(-c3ccccc3)s2)n1)[C@H]1CCNC1", "note": "[Compound 69, 2-(5-phenylthiophen-2-yl)-N-propyl-N-[(3S)-pyrrolidin-3-yl]-1,3-thiazole-4-carboxamide]", "values": [{"measurement": "activation at 0.8 µM", "setting": "[1]", "result": "30 to 50", "unit": "%"}]}, {"smiles": "CCCN(C(=O)c1csc(-c2ccc(-c3ccccc3)s2)n1)[C@@H]1CCNC1", "note": "[Compound 70, 2-(5-phenylthiophen-2-yl)-N-propyl-N-[(3R)-pyrrolidin-3-yl]-1,3-thiazole-4-carboxamide]", "values": [{"measurement": "activation at 0.8 µM", "setting": "[1]", "result": "30 to 50", "unit": "%"}]}, {"smiles": "NC[C@H]1CCCN1C(=O)c1csc(-c2cnn(-c3ccc(C(F)(F)F)cc3)c2)n1", "note": "[Compound 76, 1-[(2R)-1-(2-{1-[4-(trifluoromethyl)phenyl]-1H-pyrazol-4-yl}-1,3-thiazole-4-carbonyl)pyrrolidin-2-yl]methanamine]", "values": [{"measurement": "activation at 0.8 µM", "setting": "[1]", "result": "10 to 30", "unit": "%"}]}, {"smiles": "CCCN(C(=O)c1csc(-c2cnn(-c3ccccc3C(F)(F)F)c2)n1)[C@H]1CCNC1", "note": "[Compound 82, N-propyl-N-[(3S)-pyrrolidin-3-yl]-2-{1-[2-(trifluoromethyl)phenyl]-1H-pyrazol-4-yl}-1,3-thiazole-4-carboxamide]", "values": [{"measurement": "activation at 0.8 µM", "setting": "[1]", "result": "30 to 50", "unit": "%"}]}, {"smiles": "CCCN(C(=O)c1csc(-c2cnn(-c3ccccc3C(F)(F)F)c2)n1)[C@@H]1CCNC1", "note": "[Compound 83, N-propyl-N-[(3R)-pyrrolidin-3-yl]-2-{1-[2-(trifluoromethyl)phenyl]-1H-pyrazol-4-yl}-1,3-thiazole-4-carboxamide]", "values": [{"measurement": "activation at 0.8 µM", "setting": "[1]", "result": "30 to 50", "unit": "%"}]}, {"smiles": "Cc1ccccc1-n1cc(-c2nc(C(=O)N(C(C)C)C3CCNCC3)cs2)cn1", "note": "[Compound 84, 2-[1-(2-methylphenyl)-1H-pyrazol-4-yl]-N-(piperidin-4-yl)-N-(propan-2-yl)-1,3-thiazole-4-carboxamide]", "values": [{"measurement": "activation at 0.8 µM", "setting": "[1]", "result": "10 to 30", "unit": "%"}]}, {"smiles": "Cc1ccccc1-n1cc(-c2nc(C(=O)N3CCC[C@@H]3CN)cs2)cn1", "note": "[Compound 86, 1-[(2R)-1-{2-[1-(2-methylphenyl)-1H-pyrazol-4-yl]-1,3-thiazole-4-carbonyl}pyrrolidin-2-yl]methanamine]", "values": [{"measurement": "activation at 0.8 µM", "setting": "[1]", "result": "30 to 50", "unit": "%"}]}, {"smiles": "CCCN(C(=O)c1csc(-c2cnn(-c3ccccc3C)c2)n1)[C@H]1CCNC1", "note": "[Compound 87, 2-[1-(2-methylphenyl)-1H-pyrazol-4-yl]-N-propyl-N-[(3S)-pyrrolidin-3-yl]-1,3-thiazole-4-carboxamide]", "values": [{"measurement": "activation at 0.8 µM", "setting": "[1]", "result": "10 to 30", "unit": "%"}]}, {"smiles": "CCCN(C(=O)c1csc(-c2cnn(-c3ccccc3Cl)c2)n1)[C@H]1CCNC1", "note": "[Compound 89, 2-[1-(2-chlorophenyl)-1H-pyrazol-4-yl]-N-propyl-N-[(3S)-pyrrolidin-3-yl]-1,3-thiazole-4-carboxamide]", "values": [{"measurement": "activation at 0.8 µM", "setting": "[1]", "result": "10 to 30", "unit": "%"}]}, {"smiles": "CCCN(C(=O)c1csc(-c2cnn(-c3ccccc3Cl)c2)n1)[C@@H]1CCNC1", "note": "[Compound 90, 2-[1-(2-chlorophenyl)-1H-pyrazol-4-yl]-N-propyl-N-[(3R)-pyrrolidin-3-yl]-1,3-thiazole-4-carboxamide]", "values": [{"measurement": "activation at 0.8 µM", "setting": "[1]", "result": "10 to 30", "unit": "%"}]}, {"smiles": "CCCN(C(=O)c1csc(-c2cnn(-c3ccccc3F)c2)n1)[C@H]1CCNC1", "note": "[Compound 92, 2-[1-(2-fluorophenyl)-1H-pyrazol-4-yl]-N-propyl-N-[(3S)-pyrrolidin-3-yl]-1,3-thiazole-4-carboxamide]", "values": [{"measurement": "activation at 0.8 µM", "setting": "[1]", "result": "50 to 100", "unit": "%"}, {"measurement": "activation at 0.8 µM", "setting": "[2]", "result": "50 to 100", "unit": "%"}]}, {"smiles": "CCCN(C(=O)c1ccc(-c2cnn(-c3ccccc3)c2)[nH]1)[C@H]1CCNC1", "note": "[Compound 93, 5-(1-phenyl-1H-pyrazol-4-yl)-N-propyl-N-[(3S)-pyrrolidin-3-yl]-1H-pyrrole-2-carboxamide]", "values": [{"measurement": "activation at 0.8 µM", "setting": "[1]", "result": "> 100", "unit": "%"}, {"measurement": "activation at 0.8 µM", "setting": "[2]", "result": "50 to 100", "unit": "%"}, {"measurement": "Activity (percentage increase in acidic vesicle formation), Table 2b More preferred compounds", "result": "++++ (a percentage increase in acidic vesicle of greater than 100% over the DMSO-treated control)"}]}, {"smiles": "CCCN(C(=O)c1ccc(-c2cnn(-c3ccccc3)c2)[nH]1)[C@@H]1CCNC1", "note": "[Compound 94, 5-(1-phenyl-1H-pyrazol-4-yl)-N-propyl-N-[(3R)-pyrrolidin-3-yl]-1H-pyrrole-2-carboxamide]", "values": [{"measurement": "activation at 0.8 µM", "setting": "[1]", "result": "> 100", "unit": "%"}, {"measurement": "activation at 0.8 µM", "setting": "[2]", "result": "50 to 100", "unit": "%"}, {"measurement": "Activity (percentage increase in acidic vesicle formation), Table 2b More preferred compounds", "result": "++++ (a percentage increase in acidic vesicle of greater than 100% over the DMSO-treated control)"}]}, {"smiles": "CC(C)N(C(=O)c1csc(-c2cnn(-c3ccccc3F)c2)n1)C1CCNCC1", "note": "[Compound 95, 2-[1-(2-fluorophenyl)-1H-pyrazol-4-yl]-N-(piperidin-4-yl)-N-(propan-2-yl)-1,3-thiazole-4-carboxamide]", "values": [{"measurement": "activation at 0.8 µM", "setting": "[1]", "result": "50 to 100", "unit": "%"}, {"measurement": "activation at 0.8 µM", "setting": "[2]", "result": "50 to 100", "unit": "%"}]}, {"smiles": "CCCN(C(=O)c1csc(-c2cnn(-c3ccccc3F)c2)n1)[C@@H]1CCNC1", "note": "[Compound 97, 2-[1-(2-fluorophenyl)-1H-pyrazol-4-yl]-N-propyl-N-[(3R)-pyrrolidin-3-yl]-1,3-thiazole-4-carboxamide]", "values": [{"measurement": "activation at 0.8 µM", "setting": "[1]", "result": "30 to 50", "unit": "%"}]}, {"smiles": "CCCN(C(=O)c1ccc(-c2cnn(-c3ccccc3)c2)o1)[C@H]1CCNC1", "note": "[Compound 98, 5-(1-phenyl-1H-pyrazol-4-yl)-N-propyl-N-[(3S)-pyrrolidin-3-yl]furan-2-carboxamide]", "values": [{"measurement": "activation at 0.8 µM", "setting": "[1]", "result": "50 to 100", "unit": "%"}, {"measurement": "activation at 0.8 µM", "setting": "[2]", "result": "50 to 100", "unit": "%"}]}, {"smiles": "CCCN(C(=O)c1ccc(-c2cnn(-c3ccccc3)c2)o1)[C@@H]1CCNC1", "note": "[Compound 99, 5-(1-phenyl-1H-pyrazol-4-yl)-N-propyl-N-[(3R)-pyrrolidin-3-yl]furan-2-carboxamide]", "values": [{"measurement": "activation at 0.8 µM", "setting": "[1]", "result": "50 to 100", "unit": "%"}, {"measurement": "activation at 0.8 µM", "setting": "[2]", "result": "50 to 100", "unit": "%"}]}, {"smiles": "O=C(NCC1CCNCC1)c1ccc(-c2cnn(-c3ccccc3)c2)o1", "note": "[Compound 100, 5-(1-phenyl-1H-pyrazol-4-yl)-N-[(piperidin-4-yl)methyl]furan-2-carboxamide]", "values": [{"measurement": "activation at 0.8 µM", "setting": "[1]", "result": "30 to 50", "unit": "%"}]}, {"smiles": "NCCOCCNC(=O)c1ccc(-c2cnn(-c3ccccc3)c2)o1", "note": "[Compound 101, N-[2-(2-aminoethoxy)ethyl]-5-(1-phenyl-1H-pyrazol-4-yl)furan-2-carboxamide]", "values": [{"measurement": "activation at 0.8 µM", "setting": "[1]", "result": "30 to 50", "unit": "%"}]}, {"smiles": "O=C(c1csc(-c2cnn(-c3ccccc3)c2)n1)N1CCNCC1", "note": "[Compound 104, 1-[2-(1-phenyl-1H-pyrazol-4-yl)-1,3-thiazole-4-carbonyl]piperazine]", "values": [{"measurement": "activation at 0.8 µM", "setting": "[1]", "result": "10 to 30", "unit": "%"}]}, {"smiles": "O=C(NC[C@@H]1CNCCO1)c1csc(-c2cnn(-c3ccccc3)c2)n1", "note": "[Compound 107, N-{[(2S)-morpholin-2-yl]methyl}-2-(1-phenyl-1H-pyrazol-4-yl)-1,3-thiazole-4-carboxamide]", "values": [{"measurement": "activation at 0.8 µM", "setting": "[1]", "result": "10 to 30", "unit": "%"}]}, {"smiles": "NCCOCCNC(=O)c1cc(-c2cnn(-c3ccccc3)c2)cs1", "note": "[Compound 110, N-[2-(2-aminoethoxy)ethyl]-4-(1-phenyl-1H-pyrazol-4-yl)thiophene-2-carboxamide]", "values": [{"measurement": "activation at 0.8 µM", "setting": "[1]", "result": "50 to 100", "unit": "%"}, {"measurement": "activation at 0.8 µM", "setting": "[2]", "result": "50 to 100", "unit": "%"}]}]}
